Data as given in patent US4444776A, “Dipyrido (4,3-B) (3,4-F) indoles, process for obtaining them, therapeutical use and pharmaceutical compositions” (priority 1977, dated 1984).

Columns and labels:
Friend leukemia virus = assay: Test 2: viro-induced Friend leukemia (Table II); type: in vivo, DBA2 mice; details: for mean spleen weight (range): 21 days after virus; for ILS % / Weight of the spleens on the 21st day / Mean survival time (first-last death): VFA 1/250, 5 hrs after the virus
Source text: The protective power of the compounds according to the invention have also been sought on the Friend viro-induced leukemia (J. Exp. Med. 1957-105-307-318) and it has been determined that the compounds according to the invention are antiviral and antitumoral agents in lower animals.
Test 2. Viro-induced Leukemia: Friend leukemia
The protective power of the compounds according to the invention was sought on Friend leukemia, inoculated into DBA2 mice aged from 5-6 weeks. The viral inoculum was produced from a homogenate of leukemic spleen (p/volume) diluted to 1/250 in isotonic phosphate buffer without Ca^++ nor Mg^++ (PBS), corresponding to 100 SD 50 (i.e. to the dose of virus which induces a splenomegaly in 50% of the inoculated mice).
The virus was injected by the IP route and in a volume of 0.2 ml. The product to be tested was injected 5 hours after the virus or 1 day after the virus at the dose indicated in a volume of 0.1 ml (IP route). Each group of twenty control mice received the virus and a placebo or the product to be tested, 10 mice were sacrified on the 21st day, and their spleen removed and weighed. The mice were considered as leukemic when the weight of their spleen exceed 200 mg. For the 10 mice, the life span of the animals was determined.

new-born mice = assay: Test 4: toxicity on new-born mice, IP; type: in vivo, mouse; details: new-born mice
Source text: Test 4: Investigation of the toxicity
The toxic dose has been sought, on adult ([…]×DBA/2) Fl mice and on new-born mice, of the compounds of the invention by injection by the IP route. The results obtained are given hereinafter:
2-On new-born mice (IP route)

L 1210 leukemia = assay: Test 11: L 1210 leukemic mice, examples 7 and 8 (Table VIII); type: in vivo, mouse; parameters: MTS: unit not given beside the values; details: J+1
Experimental: This test was carried out with 10^3, 10^4 and 10^5 leukemic cells on day J. This test was also carried out with the compound of example 7, i.e. 1-[(γ-diethylaminopropyl)amino]-5-methyl-dipyrido [4,3-b][3,4-f] indole (compound 21).

L1210 leukemia [1] = assay: Test 16: structure-activity of R'1 substitution, L1210 (Table XII); type: in vivo, mouse (C57B16xDBA/2)F1; parameters: MST: unit not given here; details: for 60 days surv. / ILS % / MST / Range of death: day +1
Experimental: Test 16: Relationship between structure and activity of various dipyrido indoles differing by the R'1 substitution.
L1210 leukemia has been maintained by weekly passages on (C57B16xDBA/2)F1 mice. On day 0, mice were inoculated by I.P. route with various numbers of L1210 ascitic tumor cells in volumes of 0.1 ml. Subsequently as indicated, drugs were administrated in Ca^++ and Mg^++ free PBS solutions (Gibco) or in Mac Coy's medium (Gibso or Microbiological Associates). […]

L1210 leukemia [2] = assay: Test 17: length of substituting chain, L1210 (Table XIII); type: in vivo, mouse
Experimental: Test 17: Relationship between the length of the substituting chain and the activity.
However compound 21 is less toxic (50 mg/kg for compound 21 and 25 mg/kg for compound 23), it has a higher ILS% than compound 23 and 1 mouse survived up to 60 days.

L1210 cells = assay: Test 19: effect of time of administration, L1210 (Table XIV); type: in vivo, mouse; parameters: MST: unit not given beside the values; details: 20 mg/kg IP
Source text: Test 19: Effect of the time of administration of compound 21
The non-protective effect at day+7 could be explained by the fact that some cells migrate through a compartment inaccessible to the drug (as postulated by J. B. Le Pecq for the 9-hydroxy-ellipticine).

mice = assay: Test 21: toxicity after intraperitoneal injection
Experimental: All drugs were dissolved in aqueous solutions adjusted at pH 5 with acetic acid and inoculated to the mice under a volume of 0.1 ml I.P. after dilution in Mac Coy's medium.
The toxicity of the drugs after intraperitoneal injection was estimated from the mortality rate up to the 30th day.

[3] = 10^4 cells, 5 mg/kg, control MST 11.8
[4] = second group: 10^4 cells, 5 mg/kg, control MST 10.9

SMILES: Cc1c2ccncc2c(C)c2c1[nH]c1ccncc12 [Example 1, 5,11-dimethyl dipyrido [4,3-b][3,4-f] indole]
- mean spleen weight (range) (Friend leukemia virus; 25 mg/kg): 1,803 (718-2,635) mg
- mean spleen weight (range) (Friend leukemia virus; 50 mg/kg): 960 (373-1,230) mg
- ILS % (Friend leukemia virus; 0.1 mg): 59.5%
- Weight of the spleens on the 21st day (Friend leukemia virus; 0.1 mg): 2013 mg
- Mean survival time (first-last death) (Friend leukemia virus; 0.1 mg, IP): 47.6 (26-78) Days
- ILS % (Friend leukemia virus; 0.5 mg): 14.6%
- Mean survival time (first-last death) (Friend leukemia virus; 0.5 mg): 34.2 (22.54) Days
- Weight of the spleens on the 21st day (Friend leukemia virus; 0.5 mg): 1803 mg
- ILS % (Friend leukemia virus; 1 mg): 39.7%
- Mean survival time (first-last death) (Friend leukemia virus; 1 mg): 41.7 (14-81) Days
- Weight of the spleens on the 21st day (Friend leukemia virus; 1 mg): 959,6 mg

SMILES: CCN(CC)CCCNc1nccc2c(C)c3[nH]c4ccncc4c3cc12 [Example 7, 1-(γ-diethylaminopropyl)amino-5-methyl-dipyrido-[4,3-b][3,4-f] indole]
- toxic dose (new-born mice): higher than 2.5 mg/kg of mouse
- ILS % (L 1210 leukemia; 10^3 cells, 0.1 mg/mouse): 15.4%
- MTS (L 1210 leukemia; 10^3 cells, 0.1 mg/mouse): 15
- Number of surviving mice (L 1210 leukemia; 10^3 cells, 0.1 mg/mouse): 4
- ILS % (L 1210 leukemia; 10^3 cells, 0.2 mg/mouse): 25.4%
- MTS (L 1210 leukemia; 10^3 cells, 0.2 mg/mouse): 16.3
- Number of surviving mice (L 1210 leukemia; 10^3 cells, 0.2 mg/mouse): 7
- ILS % (L 1210 leukemia; 10^4 cells, 0.1 mg/mouse): 65.1%
- MTS (L 1210 leukemia; 10^4 cells, 0.1 mg/mouse): 18
- Number of surviving mice (L 1210 leukemia; 10^4 cells, 0.1 mg/mouse): 1
- 60 days surv. (L1210 leukemia [1]; 10^3 cells, 0.5 mg/kg): 3
- ILS % (L1210 leukemia [1]; 10^3 cells, 0.5 mg/kg): 17.4%
- MST (L1210 leukemia [1]; 10^3 cells, 0.5 mg/kg): 16.2
- Range of death (L1210 leukemia [1]; 10^3 cells, 0.5 mg/kg): 14-20
- 60 days surv. (L1210 leukemia [1]; 10^3 cells, 5 mg/kg): 5
- ILS % (L1210 leukemia [1]; 10^3 cells, 5 mg/kg): 23.2%
- MST (L1210 leukemia [1]; 10^3 cells, 5 mg/kg): 17
- Range of death (L1210 leukemia [1]; 10^3 cells, 5 mg/kg): 15-22
- 60 days surv. (L1210 leukemia [1]; 10^4 cells, 0.5 mg/kg): 0
- ILS % (L1210 leukemia [1]; 10^4 cells, 0.5 mg/kg): 11.5%
- MST (L1210 leukemia [1]; 10^4 cells, 0.5 mg/kg): 13.54
- Range of death (L1210 leukemia [1]; 10^4 cells, 0.5 mg/kg): 11-15
- 60 days surv. (L1210 leukemia [1]; [3]): 1
- ILS % (L1210 leukemia [1]; [3]): 33.3%
- MST (L1210 leukemia [1]; [3]): 16.2
- Range of death (L1210 leukemia [1]; [3]): 13-21
- antitumoral activity compared with Ellipticinium acetate (HUM) (L1210 leukemia [1]; Table XII summary): compete favorably with Ellipticinium acetate (HUM)
- 60 days surv. (L1210 leukemia [1]; [4]): 1
- ILS % (L1210 leukemia [1]; [4]): 65.1%
- MST (L1210 leukemia [1]; [4]): 18
- Range of death (L1210 leukemia [1]; [4]): 14-21
- activity against L1210 leukemia (in words) (L1210 leukemia [2]; Table XIII summary): the compound the most active on the mice
- ILS % (L1210 leukemia [2]; day +1): 69.2%
- Survivors up to 60 days (L1210 leukemia [2]; day +1): 1
- MST (L1210 leukemia [2]; day +1, control MST 8.8): 14.9
- Range of death (L1210 leukemia [2]; day +1, control MST 8.8): 12-18
- ILS % (L1210 leukemia [2]; day +4): 65.6%
- Survivors up to 60 days (L1210 leukemia [2]; day +4): 0
- MST (L1210 leukemia [2]; day +4, control MST 11.2): 18.5
- Range of death (L1210 leukemia [2]; day +4, control MST 11.2): 14-32
- ILS % (L1210 cells; day +2): 56.4%
- MST (L1210 cells; day +2): 15.8
- Range of death (L1210 cells; day +2, 10^4 cells): 15-17
- MST (L1210 cells; day +3): 14.4
- Range of death (L1210 cells; day +3): 12-17
- ILS % (L1210 cells; day +3, listed as BD 40): 43.0%
- ILS % (L1210 cells; day +3, listed as Compound 21): 43%
- ILS % (L1210 cells; day +4): 22.8%
- MST (L1210 cells; day +4): 12.4
- Range of death (L1210 cells; day +4): 10-14
- ILS % (L1210 cells; day +5): 17.8%
- MST (L1210 cells; day +5): 11.9
- Range of death (L1210 cells; day +5): 10-13
- ILS % (L1210 cells; day +6): 20.8%
- MST (L1210 cells; day +6): 12.2
- Range of death (L1210 cells; day +6): 10-14
- MST (L1210 cells; day +7): 10.3
- Range of death (L1210 cells; day +7): 10-13
- ILS % (L1210 cells; day +7, listed as BD 40): 2.0%
- ILS % (L1210 cells; day +7, listed as Compound 21): 2%
- time of deaths after drug administration (mice; IP): 4 to 8 days
- minimal quantity resulting in 100% deaths (mice; IP, mortality up to the 30th day): 50 mg/kg
- toxicity (toxic dose) (mice; Test 17 text): 50 mg/kg
